For orientation: GI50 means the concentration that inhibits growth by half. A low value points to more potent growth inhibition.

In brackets after ≈: the same amount, converted by molar mass.

Common to all, as to type: cell-based
Test [1] relates to human prostate cancer DU145 cell. The test is described as follows: Cytotoxicity test 3 (WST method, 8 hours with sample liquid). The settings on record: DU-145, total cultivation 72 hours, as CPT concentration.
Test [2] deals with human liver cancer HepG2 cell. The test is described as follows: Cytotoxicity test 4 (WST method, 8 hours with sample liquid). The settings on record: total cultivation 72 hours, as CPT concentration.
The subject of test [3] is human breast cancer MDA-MB-231 cell. The test is described as follows: Cytotoxicity test 5 (WST method, 8 hours with sample liquid). The settings on record: MDA-MB-231, human breast cancer, total cultivation 72 hours, as CPT concentration. The procedure: The human breast cancer MDA-MB-231 cell, which had been suspended in 90 μIL of a medium, was seeded to a 96-well plate so that the cell would be contained at a concentration of about 5000 cells per well, and cultivated under an atmosphere of 37° C. and 5% CO2 overnight. The medium was formed of RPMI1640 (Gibco™, Invitrogen) and 10% Fetal Bovine Serum (FBS, biowest). Subsequently, each of sample liquids at various DTX concentrations obtained by diluting the micelle solution in Example 2 and the micelle solution in Comparative Example 1 with the medium was added to each well (10 μL per well), […] […] From each well, the absorbance (Abs450) of light at a wavelength of 450 nm was measured, and the cell growth rate (% cell growth) was calculated based on the below-indicated mathematical equation. It should be noted that “Abs450 value of control” in the mathematical equation means an absorbance obtained from a well in which the above-mentioned cultivation has been performed using a culture liquid free of DTX. % cell growth=[(Abs450 value after addition of sample liquid)−(Abs450 value of blank)]/[(Abs450 value of control)−(Abs450 value of blank)]×100 […]

Regarding `CC[C@@]1(O)C(=O)OCc2c1cc1n(c2=O)Cc2cc3ccccc3nc2-1` [Solution, camptothecin], the GI50 in test [1] turned out to be 0.01 µg/mL (≈ 0.0287 µM); in test [2] it was 0.04 µg/mL (≈ 0.115 µM); in test [3], 1 µg/mL (≈ 2.87 µM).
